Results from patent US11220482B2, “Aminopyridinemethanol compounds and their use” (UNIVERSITE AMIENS PICARDIE JULES VERNE, priority 2017, dated 2022).
Where two headings read alike, the source gives them in different places.

Experiments:
[1] = system: S. typhimurium TA100
[2] = system: Plasmodium falciparum 3D7; test: Plasmodium falciparum susceptibility assay, first round (SYBR Green I); format: cell-based; conditions: 3D7, first round, 48-h incubation, strain susceptible to CQ, decreased susceptibility to MQ, read-out: IC50 (nM) Plasmodium falciparum 3D7 (converted)
[3] = system: Salmonella strains; test: Bacterial reverse mutation assay (Ames test), overall conclusion; format: cell-based, S. typhimurium; conditions: all tested doses, absence or presence of the metabolizing mixture
Experimental: Five strains of S. typhimurium were used. […] An additional strain has been chosen to detect cross-linking mutagens, hydrazines and oxidative agents: TA102, which have an AT base pair at the primary reversion site. Salmonella tester strains were gifts from Prof. B. N. Ames (Berkeley, Calif., USA). They were stored at −80° C. and regularly checked for genetic markers.
Few crystals of the frozen working strains were taken with a sterile pipette, and seeded in 10 mL of nutrient broth (NB No 2, Oxoid). Strains were grown overnight at 37° C. with shaking in Nutrient Broth No. 2, with ampicillin (25 μg/mL) for TA1535, TA97a, TA98, and TA 100, or ampicillin (25 μg/mL) plus tetracyclin (2 μg/mL) for TA 102. At the end of the incubation period, 0.1 mL of each overnight culture was mixed to 0.1 mL S9 Mix or 0.1 mL phosphate-buffered saline (PBS, pH 7.4) in 5 mL plastic tubes and various volumes of the tested samples were added to the mixtures. Each experiment included triplicate plates of four tested doses. A solvent (DMSO, 10 μL) control was added to determine the spontaneous frequency of revertants (quadruple plates). Five positive controls were also included to ensure the performance of the tester strains and the S9 Mix. […] After hardening, the plates were incubated at 37° C. for 48 hours.
At the end of the incubation period, revertants were counted with a laser colony counter equipped with a bacterial enumeration program (Spiral System Instrument Inc., Bethesda, Md., USA).
The Dunnett test was performed to determine a significant difference between the mean number of induced revertants and the mean number of spontaneous revertants.

[4] = system: Plasmodium falciparum W2; test: Plasmodium falciparum susceptibility assay, first round (SYBR Green I); format: cell-based; conditions: W2, first round, 48-h incubation, strain resistant to CQ, sensitive to MQ, read-out: IC50 (nM) Plasmodium falciparum W2 (converted)
[5] = system: S. typhimurium TA102
[6] = system: CHO-K1 cells; test: In vitro micronucleus assay, short-term exposure
Experimental: All the assays were conducted in duplicate. The CHO-K1 cells, suspended in McCoy's 5A medium, were transferred into Labteck wells at a concentration of 100,000 cells/mL, and incubated for 24 hours at 37° C. in CO2 (5%).
When the test was performed without metabolic activation, the test substances were added into cell cultures at concentrations previously defined.
When the assay was performed in the presence of metabolic activation, S9 mix metabolizing mixture was added to cell cultures at a concentration of 10%. Then the test substances were added to the cell cultures at concentrations previously defined.
After 3 hours of incubation at 37° C. in CO2 (5%), the culture medium was removed, the cells were rinsed with phosphate buffered saline (PBS), and then returned to culture in McCoy's 5A medium containing […] of cytochalasin B. After a 21-hour incubation period at 37° C., cells were rinsed with phosphate buffered saline (PBS), fixed with methanol and stained with 10% Giemsa for 20 minutes.
(§1) The analysis of results was performed under a microscope at ×1000 magnification. The antiproliferative activity of test substances was estimated by counting the number of binucleated cells relative to the number of mononucleated cells on a total of 500 cells for each dose (250 cells counted per well). The proliferation index (Cytokinesis Blocked Proliferative Index CBPI) was calculated using the following formula:
(§2) The cytostasis index (CI %), i.e. the percentage of cell replication inhibition, was calculated using the following formula: CI %−100−{100×(CBPItest material−1)/(CBPIsolvent control−1)}
(§3) The rates of micronuclei were evaluated for the presence of independent nuclear core entities in 1000 binucleated cells per well, which corresponds to 2000 cells examined by test substance dose. Micronuclei were identified as small nuclei well differentiated from cell nucleus, stained in the same manner and having a diameter less than one third of that of the cell nucleus.
(§4) Micronuclei rates obtained for different doses of test substances were compared to the negative control by a χ2 test. The assay was considered positive if: • A dose-response relationship was obtained between the rate of micronuclei and the doses tested, • At least one of these doses induced a statistically significant increase (P<0.05) in the number of micronucleated cells as compared to the negative control.

[7] = system: S. typhimurium TA98; test: Bacterial reverse mutation assay (Ames test)
[8] = system: CHO-K1 cells; conditions: Chinese hamster, 24 h
Experimental: All the assays were conducted in duplicate. The CHO-K1 cells, suspended in Mac Coy's 5A medium, were transferred into Labteck wells at a concentration of 100,000 cells/mL, and incubated for 24 hours at 37° C. in CO2 (5%).
The test was performed without metabolic activation: the test substances were added into cell cultures at concentrations previously defined. […] After 24 hours of incubation at 37° C. in CO2 (5%), the culture medium was removed, the cells were rinsed with phosphate buffered saline (PBS), and then returned in culture medium containing […] of cytochalasine B. After a 24-hour incubation period at 37° C., cells were rinsed with phosphate buffered saline (PBS), fixed with methanol and stained with 10% Giemsa for 20 minutes.
as §1, §2, §3, §4

[9] = system: S. typhimurium TA97a
[10] = system: S. typhimurium TA1535

Structure (SMILES): COC[C@H](Cc1ccccc1)NC[C@@H](O)c1cc(-c2ccc(C(F)(F)F)cc2)nc(C(F)(F)F)c1 [Compound 1i, (S)-2-(((S)-1-Methoxy-3-phenylpropan-2-yl)amino)-1-(2-(trifluoromethyl)-6-(4-(trifluoromethyl)phenyl)pyridin-4-yl)ethanol]
- Number of revertants by plate (Means ± SD), TA100 ([1]; with S9 mix, 0.4 μg/plate): 191 ± 11^NS
- Number of revertants by plate (Means ± SD), TA100 ([1]; with S9 mix, 0.6 μg/plate): 173 ± 10^NS
- Number of revertants by plate (Means ± SD), TA100 ([1]; with S9 mix, 0.8 μg/plate): 182 ± 10^NS
- Number of revertants by plate (Means ± SD), TA100 ([1]; with S9 mix, 1 μg/plate): 174 ± 10^NS
- Number of revertants by plate (Means ± SD), TA100 ([1]; without S9 mix, 0.4 μg/plate): 200 ± 7^NS
- Number of revertants by plate (Means ± SD), TA100 ([1]; without S9 mix, 0.6 μg/plate): 199 ± 10^NS
- Number of revertants by plate (Means ± SD), TA100 ([1]; without S9 mix, 0.8 μg/plate): 209 ± 17^NS
- Number of revertants by plate (Means ± SD), TA100 ([1]; without S9 mix, 1 μg/plate): 205 ± 21^NS
- IC50 [2]: 28.3 ± 1.5 nM
- mutagenic activity in Salmonella strains (revertant rates) [3]: No significant increase in revertant rates
- IC50 [4]: 28.8 ± 3.8 nM
- Number of revertants by plate (Means ± SD), TA102 ([5]; with S9 mix, 0.4 μg/plate): 351 ± 6^NS
- Number of revertants by plate (Means ± SD), TA102 ([5]; with S9 mix, 0.6 μg/plate): 355 ± 16^NS
- Number of revertants by plate (Means ± SD), TA102 ([5]; with S9 mix, 0.8 μg/plate): 376 ± 10^NS
- Number of revertants by plate (Means ± SD), TA102 ([5]; with S9 mix, 1 μg/plate): 362 ± 4^NS
- Number of revertants by plate (Means ± SD), TA102 ([5]; without S9 mix, 0.4 μg/plate): 332 ± 19^NS
- Number of revertants by plate (Means ± SD), TA102 ([5]; without S9 mix, 0.6 μg/plate): 293 ± 4^NS
- Number of revertants by plate (Means ± SD), TA102 ([5]; without S9 mix, 0.8 μg/plate): 328 ± 14^NS
- Number of revertants by plate (Means ± SD), TA102 ([5]; without S9 mix, 1 μg/plate): 347 ± 11^NS
- in vitro micronucleus assay result (clastogenic and/or aneugenic activities) [6]: negative results
- Number of revertants by plate (Means ± SD), TA98 ([7]; with S9 mix, 0.4 μg/plate): 24 ± 2^NS
- Number of revertants by plate (Means ± SD), TA98 ([7]; with S9 mix, 0.6 μg/plate): 18 ± 3^NS
- Number of revertants by plate (Means ± SD), TA98 ([7]; with S9 mix, 0.8 μg/plate): 17 ± 1^NS
- Number of revertants by plate (Means ± SD), TA98 ([7]; with S9 mix, 1 μg/plate): 20 ± 2^NS
- Number of revertants by plate (Means ± SD), TA98 ([7]; without S9 mix, 0.4 μg/plate): 32 ± 3^NS
- Number of revertants by plate (Means ± SD), TA98 ([7]; without S9 mix, 0.6 μg/plate): 33 ± 3^NS
- Number of revertants by plate (Means ± SD), TA98 ([7]; without S9 mix, 0.8 μg/plate): 33 ± 3^NS
- Number of revertants by plate (Means ± SD), TA98 ([7]; without S9 mix, 1 μg/plate): 34 ± 7^NS
- BI (binucleated cells) ([8]; 5 μM): 402
- CBPI (Cytokinesis-Blocked Proliferative Index) ([8]; 5 μM): 1.81
- CI % (cytostasis index) ([8]; 5 μM): 13%
- MNC1 (micronucleated cell rate) ([8]; 5 μM): 9 ‰
- MNC2 (micronucleated cell rate) ([8]; 5 μM): 11 ‰
- MNC-M (mean of micronucleated cell rates) ([8]; 5 μM): 10 ± 1.4 ‰
- MONO (mononucleated cells) ([8]; 5 μM): 98
- BI (binucleated cells) ([8]; 10 μM): 308
- CBPI (Cytokinesis-Blocked Proliferative Index) ([8]; 10 μM): 1.62
- CI % (cytostasis index) ([8]; 10 μM): 34%
- MNC1 (micronucleated cell rate) ([8]; 10 μM): 10 ‰
- MNC2 (micronucleated cell rate) ([8]; 10 μM): 12 ‰
- MNC-M (mean of micronucleated cell rates) ([8]; 10 μM): 11 ± 1.4 ‰
- MONO (mononucleated cells) ([8]; 10 μM): 192
- BI (binucleated cells) ([8]; 50 μM): 214
- CBPI (Cytokinesis-Blocked Proliferative Index) ([8]; 50 μM): 1.42
- CI % (cytostasis index) ([8]; 50 μM): 57%
- MNC1 (micronucleated cell rate) ([8]; 50 μM): 11 ‰
- MNC2 (micronucleated cell rate) ([8]; 50 μM): 9 ‰
- MNC-M (mean of micronucleated cell rates) ([8]; 50 μM): 10 ± 1.4 ‰
- MONO (mononucleated cells) ([8]; 50 μM): 286
- Number of revertants by plate (Means ± SD), TA97a ([9]; with S9 mix, 0.4 μg/plate): 132 ± 11^NS
- Number of revertants by plate (Means ± SD), TA97a ([9]; with S9 mix, 0.6 μg/plate): 137 ± 2^NS
- Number of revertants by plate (Means ± SD), TA97a ([9]; with S9 mix, 0.8 μg/plate): 127 ± 9^NS
- Number of revertants by plate (Means ± SD), TA97a ([9]; with S9 mix, 1 μg/plate): 124 ± 4^NS
- Number of revertants by plate (Means ± SD), TA97a ([9]; without S9 mix, 0.4 μg/plate): 153 ± 5^NS
- Number of revertants by plate (Means ± SD), TA97a ([9]; without S9 mix, 0.6 μg/plate): 163 ± 4^NS
- Number of revertants by plate (Means ± SD), TA97a ([9]; without S9 mix, 0.8 μg/plate): 164 ± 5^NS
- Number of revertants by plate (Means ± SD), TA97a ([9]; without S9 mix, 1 μg/plate): 144 ± 11^NS
- Number of revertants by plate (Means ± SD), TA1535 ([10]; with S9 mix, 0.4 μg/plate): 23 ± 6^NS
- Number of revertants by plate (Means ± SD), TA1535 ([10]; with S9 mix, 0.6 μg/plate): 29 ± 4^NS
- Number of revertants by plate (Means ± SD), TA1535 ([10]; with S9 mix, 0.8 μg/plate): 27 ± 5^NS
- Number of revertants by plate (Means ± SD), TA1535 ([10]; with S9 mix, 1 μg/plate): 29 ± 9^NS
- Number of revertants by plate (Means ± SD), TA1535 ([10]; without S9 mix, 0.4 μg/plate): 22 ± 4^NS
- Number of revertants by plate (Means ± SD), TA1535 ([10]; without S9 mix, 0.6 μg/plate): 29 ± 6^NS
- Number of revertants by plate (Means ± SD), TA1535 ([10]; without S9 mix, 0.8 μg/plate): 28 ± 5^NS
- Number of revertants by plate (Means ± SD), TA1535 ([10]; without S9 mix, 1 μg/plate): 20 ± 4^NS
